In article PMC3404986, “Pyridoxal 5′-Phosphate Is a Slow Tight Binding Inhibitor of E. coli Pyridoxal Kinase” (PLoS ONE, 2012):

Key:
[1] = target: T1, ePL kinase (E. coli pyridoxal kinase 1, PL kinase1) (Escherichia coli, UniProt P40191); assay: CD at […] nm, bound PLP removed by PLP phosphatase; type: binding; details: complex formed from PL + MgATP; 10 µM PLP phosphatase as trap, pH 7.5, 37°C; covalent, reversible aldimine; only part of the PLP released
T1 construct: gene pdxK; full length, recombinant from E. coli; wild type untagged (as previously described); K229Q His-tagged (C-terminus; pET28a NdeI/EcoRI)

[2] = target: T1, ePL kinase (E. coli pyridoxal kinase 1, PL kinase1); assay: Sephadex G-50 spin column, absorbance of bound PLP at […] nm; details: PLP without nucleotide, 0.2 mM MgCl2, pH 7.5, 37°C; slow tight binding inhibitor; covalent, reversible aldimine, K229 suggested
[3] = target: T1, ePL kinase (E. coli pyridoxal kinase 1, PL kinase1); assay: size-exclusion chromatography, then coupled enzymatic ADP assay of denatured complex; type: binding; details: complex from PLP 0.5 mM + MgADP 1 mM + MgCl2 0.5 mM, pH 7.5, 37°C, 1 h; ternary complex with PLP
Source text: size-exclusion chromatography, then coupled enzymatic ADP assay of denatured complex on ePL kinase (E. coli pyridoxal kinase 1, PL kinase1)

Row | SMILES | rate of dissociation [1] | Rate of complex formation [2] | %ADP [3]
1 | Cc1ncc(COP(=O)(O)O)c(C=O)c1O [PLP] | 0.012 min⁻¹ | 0.16 min⁻¹ | –
2 | Nc1ncnc2c1ncn2[C@@H]1O[C@H](COP(=O)(O)OP(=O)(O)O)[C@@H](O)[C@H]1O [MgADP] | – | – | 43%
